Reference: the CATMoS acute toxicity set (Mansouri et al. 2021)

Experiment: GHS categories as the set defines them, by LD50: 1 up to 5, 2 up to 50, 3 up to 300, 4 up to 2000, 5 above 2000 mg/kg
Details: rat; in vivo; po
For CS(=O)(=O)c1ccc(F)c(C(=O)O)c1, the GHS category was 5.
CCOCC=C(C)CCC=C(C)C gave a GHS category of 5.
In the case of O=C1CC(Nc2ccc(Cl)cc2Cl)=NN1c1c(Cl)cc(Cl)cc1Cl, the GHS category was 5.
CCCCCCCCC=CCCCCCCCC(=O)OC(C)C gave a GHS category of 5.
Work on c1ccc([I+]c2ccccc2)cc1 yielded a GHS category of 4.
In the case of O=[N+]([O-])c1ccc(OP(=S)(Oc2ccc([N+](=O)[O-])cc2)Oc2ccc([N+](=O)[O-])cc2)cc1, the GHS category was 5.
For Cc1cc(C(F)(C(F)(F)F)C(F)(F)F)ccc1NC(=O)c1cccc(I)c1C(=O)NC(C)(C)CS(C)(=O)=O, the GHS category was 5.
CCCS(=O)(=O)Nc1ccc(F)c(C(=O)c2c[nH]c3ncc(Br)cc23)c1F showed a GHS category of 5.
CC(=O)N(C)C(=O)Oc1cccc2c1OCO2 showed a GHS category of 4.
Molecule CSC has a GHS category of 4.
In the case of ClC(=Nc1c(Cl)c(Cl)c(Cl)c(Cl)c1Cl)C(Cl)(Cl)Cl, the GHS category was 4.
O=C1C=C2C=C[C@@H]3C[C@@]2(O1)[C@H]1CCCCN31 showed a GHS category of 4.
For COc1ccccc1-c1nc(C)c(C(N)=O)s1, the GHS category was 5.
Work on Cc1onc(-c2ccccc2)c1C(=O)N[C@@H]1C(=O)N2[C@@H]1SC(C)(C)[C@@H]2C(=O)O yielded a GHS category of 5.
CNc1nc(Nc2ccc(C=Cc3ccc(Nc4nc(NC)nc(N(CCO)CCO)n4)cc3S(=O)(=O)O)c(S(=O)(=O)O)c2)nc(N(CCO)CCO)n1 gave a GHS category of 5.
For COc1cc(OC)nc(N=C(O)NS(=O)(=O)N(C)S(C)(=O)=O)n1, the GHS category was 5.
In the case of CCOC(=O)[C@H](CCc1ccccc1)N[C@@H](C)C(=O)N1[C@H](C(=O)O)C[C@H]2CCCC[C@@H]21, the GHS category was 5.
CCCC/C=C\CCCCCCCCCC=O showed a GHS category of 5.
For COCCCNc1nc(NC(C)C)nc(SC)n1, the GHS category was 5.
CCCCCCC(O)CCO (stereo not drawn) showed a GHS category of 5.
Molecule CC(C)(c1cc(Br)c(OCC(Br)CBr)c(Br)c1)c1cc(Br)c(OCC(Br)CBr)c(Br)c1 (stereo not drawn) has a GHS category of 5.
In the case of Cc1cc(C(=O)Nc2cccc(C(F)(F)F)c2)n[nH]1, the GHS category was 5.
For C[C@@H]1CCO[C@@](Cn2cncn2)(c2cc3ccccc3o2)O1, the GHS category was 4.
For CCCc1nc(C)c2c(=O)nc(-c3cc(S(=O)(=O)N4CCN(CC)CC4)ccc3OCC)[nH]n12, the GHS category was 5.
C=C(C#N)C(=O)OCCOC showed a GHS category of 5.
CC(O)COC(=O)c1c(Br)c(Br)c(Br)c(Br)c1C(=O)OCCOCCO (stereo not drawn) showed a GHS category of 5.
Molecule Brc1nc[nH]c1Br has a GHS category of 4.
With O=C(O)c1ccc2ccccc2c1 the GHS category was 5.
Molecule CCCCCCCC(=O)O[C@H]1CO[C@H]2[C@@H]1OC[C@H]2OC(=O)CCCCCCC has a GHS category of 5.
CCC(O)OCc1c(Cl)ccc(Cl)c1Cl (stereo not drawn) showed a GHS category of 5.
In the case of Oc1cc(O)c2c(c1)O[C@H](c1ccc(O)c(O)c1)[C@@H](O)C2, the GHS category was 5.
CCCCCC=CCC=CCC=CCC=CCCCC(=O)OCC gave a GHS category of 5.
With O=C1CCCCCN1SSN1CCCCCC1=O the GHS category was 5.
CCSC(=O)/C=C(C)/C=C/CC(C)CCCC(C)(C)OC (stereo not drawn) showed a GHS category of 5.
COc1cc2c(cc1OC)C(c1cccc(Cl)c1)=NN=C(C)C2 showed a GHS category of 5.
Work on Clc1ccc(N/C(=N/C2CCCCC2)c2ccccc2)cc1Cl yielded a GHS category of 5.
Molecule COc1cc(NS(=O)(=O)c2ccccc2)c2c(c1N)C(=O)c1ccccc1C2=O has a GHS category of 5.
In the case of COc1nc(OC)nc(C(=O)c2cccc(F)c2N(C)S(=O)(=O)C(F)(F)F)n1, the GHS category was 5.
OC[C@H]1O[C@@H](n2cnc3c(NC[C@H](O)COc4cccc5ccccc45)ncnc32)[C@H](O)[C@@H]1O gave a GHS category of 4.
With O=C(Cc1ccccc1)C1C(=O)CC(c2ccccc2)CC1=O (stereo not drawn) the GHS category was 5.
Molecule COc1ccc(C(=O)N2CCN(c3ccc4c(c3)CCC(=O)N4)CC2)cc1OC has a GHS category of 5.
CNC(=O)Oc1ccc(C)c2sccc12 gave a GHS category of 3.
Work on CC1(C)C=C(n2ccccc2=O)c2cc(C#N)ccc2C1=O yielded a GHS category of 3.
Molecule OC1C(Cl)(Cl)C(=C(Cl)Cl)C(O)(C(Cl)Cl)C1(Cl)Cl (stereo not drawn) has a GHS category of 4.
For CCCC1O[C@@H]2C[C@H]3[C@@H]4CCC5=CC(=O)C=C[C@]5(C)[C@H]4[C@@H](O)C[C@]3(C)[C@]2(C(=O)CO)O1 (stereo partly drawn), the GHS category was 5.
CCn1cc(C(=O)O)c(=O)c2cc(F)c(-n3cccc3)cc21 gave a GHS category of 5.
In the case of Cc1ccc2c(-c3ccc(F)cc3)nc(=O)n(C(C)C)c2c1, the GHS category was 5.
CCCCCC(=O)OCCCC showed a GHS category of 5.
CC(C)=CCC/C(C)=C/C(=O)OCCC(C)C showed a GHS category of 5.
Molecule CC(=O)C(N=Nc1cccc(OCCOc2ccccc2N=NC(C(C)=O)C(=O)Nc2ccc3[nH]c(=O)[nH]c3c2)c1)C(=O)Nc1ccc2[nH]c(=O)[nH]c2c1 (stereo not drawn) has a GHS category of 5.
In the case of Cc1cccc(N(C)C(=S)Oc2ccc3ccccc3c2)c1, the GHS category was 5.
Molecule CCOc1cc(N)c(Cl)cc1C(=O)NCC1CN(Cc2ccc(F)cc2)CCO1 (stereo not drawn) has a GHS category of 5.
Clc1ccc(C2=NCOCS2)cc1 gave a GHS category of 4.
CCCCCCCC/C=C\CCCCCCCCCCCC(=O)O showed a GHS category of 5.
CCCCCCCOC(C)=O gave a GHS category of 5.
With CC1(C)O[C@@H]2C[C@H]3[C@@H]4C[C@H](F)C5=CC(=O)C=C[C@]5(C)[C@@]4(F)[C@@H](O)C[C@]3(C)[C@]2(C(=O)CO)O1 the GHS category was 5.
Molecule CNC(=O)Oc1ccc(N(C)C)c(C)c1 has a GHS category of 2.
For CCCc1c(Cc2ccc(-c3ccccc3-c3nn[nH]n3)cc2)c(N=[N+]=[N-])nc2ncnn12, the GHS category was 4.
With O=[N+]([O-])c1c(Cl)cccc1-c1c[nH]cc1Cl the GHS category was 5.
Molecule C=CC(=O)Oc1c(Br)cc(Cl)c2cccnc12 has a GHS category of 5.
CCCCC(=O)N(Cc1ccc(-c2ccccc2-c2nn[nH]n2)cc1)[C@H](C(=O)OCc1ccccc1)C(C)C gave a GHS category of 4.
In the case of Cc1ccc(C2=NCOCS2)cc1, the GHS category was 4.
C=COCCOCCOCCOC=C showed a GHS category of 5.
For COc1ccc2c(c1)CCN(c1ccccc1)C2c1ccccc1Br (stereo not drawn), the GHS category was 4.
Molecule COC(=O)c1ccccc1S(=O)(=O)NC(=O)Nc1nc(OC(F)F)cc(OC(F)F)n1 has a GHS category of 5.
Work on Cc1ccc(S(=O)(=O)NC(=O)NC(=O)C(Cl)(Cl)Cl)cc1 yielded a GHS category of 5.
Work on CC(C)=CCN(CC=C(C)C)CCC(C#N)(Cc1cccc2ccccc12)C(C)C (stereo not drawn) yielded a GHS category of 4.
In the case of CNC(=O)C(=NNc1cccc(Cl)c1Cl)C(C)=O, the GHS category was 5.
In the case of COc1ccc2cccc(CC#N)c2c1, the GHS category was 5.
For Cc1ccccc1OC(=O)c1cc(Cl)ccc1OC(N)=O, the GHS category was 5.
Molecule CCCCC(CC)COC(=O)c1ccc(C(=O)OCC(CC)CCCC)c(C(=O)OCC(CC)CCCC)c1 (stereo not drawn) has a GHS category of 5.
With NS(=O)(=O)c1ccc(N2CCCCS2(=O)=O)cc1 the GHS category was 5.
In the case of O=S(=O)(O)c1ccccc1Nc1ccc(C(=C2C=CC(=Nc3ccccc3)C=C2)c2ccc(Nc3ccccc3)cc2)cc1, the GHS category was 5.
In the case of O=[N+]([O-])c1ccc2nc[nH]c2c1, the GHS category was 4.
In the case of CC(=O)C(C)O (stereo not drawn), the GHS category was 5.
In the case of O=CCC(=O)c1ccc(C2CCCCC2)cc1, the GHS category was 4.
For CCCCn1cc2c3c(cccc31)[C@@]1(OC)C[C@@H](COC(=O)c3cncc(Br)c3)CN(C)[C@@H]1C2, the GHS category was 4.
For O=c1nc2nc[nH]n2c(COCc2ccccc2)c1Cc1ccc(-c2ccccc2-c2nn[nH]n2)cc1, the GHS category was 4.
With CCCCCCCCCCCCCCCCCCSSCCCCCCCCCCCCCCCCCC the GHS category was 5.
In the case of CCCCCCOc1ccc(-c2nc(-c3ccccc3)nc(-c3ccccc3)n2)c(O)c1, the GHS category was 5.
CCCCCCCCCCCC gave a GHS category of 5.
Molecule c1ccc2oc(C3(Cn4ccnc4)OCCCO3)cc2c1 has a GHS category of 4.
NC(=O)c1ccc(N)cc1 showed a GHS category of 5.
For O=C1/C(=C2\Nc3ccccc3C2=O)Nc2ccccc21, the GHS category was 5.
Molecule OC1CCC2CCCCC2C1 (stereo not drawn) has a GHS category of 5.
Work on C[Si](C)(CCCN)N1CCC[Si]1(C)C yielded a GHS category of 4.
Work on CCOc1cc(NCCCN(C)C)c(=O)n(-c2ccccc2)n1 yielded a GHS category of 5.
With NC(=O)[C@@H]1CCCN1C(=O)[C@H](Cc1cnc[nH]1)NC(=O)[C@@H]1CCC(=O)N1 the GHS category was 5.
C=C(C=CCC(O)C(O)C(O)CC=CC=CC(O)CC1OC(CC(O)C(O)CC2OC(C(O)C(O)CCC(O)C=CC(C)C(O)CC3(O)OC(CC(O)CCCCCCCC45CC(C)CC(C)(O4)C(CC(C)CCCCCC(O)C(O)C(O)C(O)C(O)C4OC(CC(O)C(O)C(C)=CC(O)CC(C)C(O)C(=O)NC=CC(=O)NCCCO)C(O)C(O)C4O)O5)C(O)C(O)C3O)CC(O)C2O)C(O)C(O)C1O)CCC(O)C(O)C(O)C(C)CC1OC(C=CC(O)C(O)CC2CC3CC(O2)C(CCC2OC(CN)CC2O)O3)C(O)C(O)C1O (stereo not drawn) showed a GHS category of 1.
In the case of Clc1ccccc1-c1nc(-c2ccncc2)no1, the GHS category was 5.
CCOC(=O)C(C)OC(=O)c1cc(Oc2ccc(C(F)(F)F)cc2Cl)ccc1[N+](=O)[O-] (stereo not drawn) showed a GHS category of 5.
For O=C(c1ccc(Cl)c(Cl)c1)c1ccccc1-c1ncc[nH]1, the GHS category was 4.
For CC/C=C/C=C\CCCCCCCCOC(C)=O, the GHS category was 4.
For CC(C)(C)OOC(C)(C)CCC(C)(C)OOC(C)(C)C, the GHS category was 5.
In the case of O=[N+]([O-])c1cc2c(Nc3ccc(F)c(Cl)c3)ncnc2cc1O[C@H]1CCOC1, the GHS category was 5.
Work on CC(C)N1CCN(C(=O)c2ccc(OC(=O)C3CCCc4ccccc43)cc2)CC1 (stereo not drawn) yielded a GHS category of 5.
In the case of CN[C@@H]1[C@@H](O)[C@@H](O[C@@H]2[C@@H](O)[C@H](OC3OC(CN)=CCC3N)[C@@H](N)C[C@H]2N)OC[C@]1(C)O (stereo partly drawn), the GHS category was 5.
Molecule O=C1CC[C@H]2CO[C@@H]1O2 has a GHS category of 5.
With CCCCCCCCCC(=O)Nc1ccc(Cc2ccccn2)c([N+](=O)[O-])c1 the GHS category was 3.
For COC(=O)Nc1nc2ccc(OCc3ccccc3)cc2[nH]1, the GHS category was 5.
For CC(=O)N(C)C(=O)Oc1cccc2c1OC1(CCCC1)O2, the GHS category was 4.
CCCC(=O)Nc1ccc(Cc2ccccn2)c([N+](=O)[O-])c1 gave a GHS category of 4.
Work on CNC(=O)c1cnc2cccc(C)n2c1=O yielded a GHS category of 3.
With CC(=O)O[C@@H]1[C@H](OC(C)=O)[C@@H](C)O[C@H]1n1cc(F)c(N)nc1=O the GHS category was 5.
In the case of CC(C)C1=CC23CCC4C(C)(C(=O)N5CCN(CCO)CC5)CCCC4(C)C2CC1C1C(=O)OC(=O)C13 (stereo not drawn), the GHS category was 5.
In the case of Nc1ccc(CCc2ccc(N)cc2)cc1, the GHS category was 5.
With CN[C@@H]1[C@H](O)[C@H](NC)[C@H]2O[C@@]3(O)C(=O)C[C@@H](C)O[C@H]3O[C@@H]2[C@H]1O the GHS category was 5.
For COc1ccc(C(=O)NCc2ccc(OCCN(C)C)cc2)cc1OC, the GHS category was 5.
